Test results taken from PMC7759271 (Cannabis and Cannabinoid Research, 2020).

Experiments:
hTRPA1 = target: T1, hTRPA1 (Homo sapiens, UniProt O75762); experiment: intracellular calcium fluorescence assay (Calcium […] dye, FlexStation […]); type: cell-based
T1 construct: gene TRPA1

hTRPV1 = target: T2, hTRPV1 (Homo sapiens, UniProt Q8NER1); experiment: as above; type: cell-based
T2 construct: gene TRPV1
T2 sequence (Q8NER1 whole entry): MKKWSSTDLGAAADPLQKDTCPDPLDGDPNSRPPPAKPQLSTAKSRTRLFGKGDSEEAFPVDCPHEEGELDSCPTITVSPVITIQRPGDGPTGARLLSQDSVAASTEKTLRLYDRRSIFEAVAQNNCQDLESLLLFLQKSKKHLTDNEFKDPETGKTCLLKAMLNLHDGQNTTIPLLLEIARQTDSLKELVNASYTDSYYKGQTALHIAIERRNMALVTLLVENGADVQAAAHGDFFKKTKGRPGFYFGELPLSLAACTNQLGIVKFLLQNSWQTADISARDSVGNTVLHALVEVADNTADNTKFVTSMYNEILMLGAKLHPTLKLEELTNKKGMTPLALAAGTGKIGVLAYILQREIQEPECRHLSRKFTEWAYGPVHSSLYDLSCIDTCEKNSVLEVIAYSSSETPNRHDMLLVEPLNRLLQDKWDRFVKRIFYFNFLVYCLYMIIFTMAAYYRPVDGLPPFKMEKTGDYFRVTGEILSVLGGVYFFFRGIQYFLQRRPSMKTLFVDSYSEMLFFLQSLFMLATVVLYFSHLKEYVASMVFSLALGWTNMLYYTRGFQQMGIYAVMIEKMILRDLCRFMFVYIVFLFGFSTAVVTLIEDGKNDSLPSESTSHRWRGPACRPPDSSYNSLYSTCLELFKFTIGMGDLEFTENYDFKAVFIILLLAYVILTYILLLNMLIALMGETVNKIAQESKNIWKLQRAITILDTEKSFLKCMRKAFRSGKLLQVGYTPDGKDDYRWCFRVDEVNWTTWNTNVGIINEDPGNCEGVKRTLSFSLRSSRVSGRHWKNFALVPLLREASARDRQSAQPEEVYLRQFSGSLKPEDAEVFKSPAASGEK

T1 sequence (O75762 whole entry): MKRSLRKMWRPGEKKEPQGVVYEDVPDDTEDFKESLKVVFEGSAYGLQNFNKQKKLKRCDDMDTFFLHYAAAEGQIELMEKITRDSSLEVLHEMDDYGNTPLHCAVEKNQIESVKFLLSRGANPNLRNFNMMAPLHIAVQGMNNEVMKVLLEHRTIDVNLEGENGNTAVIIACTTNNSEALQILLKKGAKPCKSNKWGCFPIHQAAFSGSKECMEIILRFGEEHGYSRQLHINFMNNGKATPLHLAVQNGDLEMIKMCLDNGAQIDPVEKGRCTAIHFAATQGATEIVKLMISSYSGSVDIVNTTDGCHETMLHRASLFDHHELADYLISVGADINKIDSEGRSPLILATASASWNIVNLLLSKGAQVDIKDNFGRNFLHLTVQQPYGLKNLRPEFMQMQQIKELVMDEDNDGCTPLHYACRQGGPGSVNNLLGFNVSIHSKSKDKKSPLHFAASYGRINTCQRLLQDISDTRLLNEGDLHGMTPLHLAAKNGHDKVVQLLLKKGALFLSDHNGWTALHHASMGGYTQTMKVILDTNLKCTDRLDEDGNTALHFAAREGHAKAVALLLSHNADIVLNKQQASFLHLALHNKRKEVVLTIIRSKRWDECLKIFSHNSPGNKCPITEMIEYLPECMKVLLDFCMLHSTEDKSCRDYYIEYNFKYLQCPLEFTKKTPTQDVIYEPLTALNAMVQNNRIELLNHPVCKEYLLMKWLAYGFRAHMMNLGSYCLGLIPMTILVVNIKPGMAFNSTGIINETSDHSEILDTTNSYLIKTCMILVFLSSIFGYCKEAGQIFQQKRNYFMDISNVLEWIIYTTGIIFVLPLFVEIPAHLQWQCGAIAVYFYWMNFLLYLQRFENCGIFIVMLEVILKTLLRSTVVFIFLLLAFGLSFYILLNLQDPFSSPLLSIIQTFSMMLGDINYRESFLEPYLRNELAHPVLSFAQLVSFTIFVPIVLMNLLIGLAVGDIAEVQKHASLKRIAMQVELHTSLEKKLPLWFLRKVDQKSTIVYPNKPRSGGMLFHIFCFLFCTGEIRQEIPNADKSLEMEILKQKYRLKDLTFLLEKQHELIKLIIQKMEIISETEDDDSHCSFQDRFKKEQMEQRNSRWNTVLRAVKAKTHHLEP

Work on `CCCCC/C=C\C/C=C\C/C=C\C/C=C\CCCC(=O)OC(CO)CO` [2-arachidonoylglycerol] yielded an EC50 (hTRPA1) of 10 µM.
Work on `CCCCC/C=C\C/C=C\C/C=C\C/C=C\CCCC(=O)NCCO` [anandamide] yielded an EC50 (hTRPV1) of 4.3 µM.
In the case of `O=CC=Cc1ccccc1` [cinnamaldehyde], the EC50 (hTRPA1) is reported as 12 µM.
In the case of `CCCCCc1cc(O)c2c(c1)OC(C)(C)[C@@H]1CCC(C)=C[C@@H]21` [Δ9-tetrahydrocannabinol], the EC50 (hTRPA1) is reported as 9 µM.
